These results are taken from paper PMC4204849, “Lifespan Based Pharmacokinetic-Pharmacodynamic Model of Tumor Growth Inhibition by Anticancer Therapeutics” (PLoS ONE, 2014).

Values after ≈ are worked out from the molar mass of the structure shown. Marks after values point to notes of the source that are not given here.

The nature of series [1]: Pharmacokinetic study of AZD1208, single oral administration, one-compartment model. Format: in vivo, mice. The note with it: single oral 3, 10, 30 mg/kg. Here is the method: For pharmacokinetic study of AZ968, CD1 mice were given single i.p. injection of AZ968 at 10, 20 or 30 mg/kg with 3 mice per dose group. Blood samples were collected via cardiac puncture. Total plasma concentrations of AZ968 were determined by LC/MS/MS method. Same procedure was used for the pharmacokinetic study of AZD1208, except AZD1208 was administered orally (p.o.) at 3, 10 or 30 mg/kg doses as outlined in the original study.
(§1) Data for this case study was provided by AstraZeneca. For the purpose of this case study we will set time according to when the first dose of AZD1208 was administered, which we count as day 1. We began with a compartmental PK analysis after a single oral administration of AZD1208 at 3, 10 and 30 mg/kg and found it well described using a one-compartment PK model with first order absorption as shown in Figure 9A.

The subject of a further series is MOLM-16 tumor cell. Kind of series: Tumor growth inhibition by AZD1208 in xenograft, lifespan TGI model (non-cycle-specific, Emax). It counts as in vivo, mice. The procedure:
as §1
After establishing the PK model, we fit the TGI data using the lifespan TGI model. Since AZD1208 is a pan-Pim kinase inhibitor that promotes apoptosis at any stages of cell cycle, the data were analyzed using the non-cycle-specific model. […] In order to adapt the lifespan TGI model to account for only exponential growth we simply set the tumor threshold, wth, to a very large value well beyond the observed values of tumor size. Another unique feature of this dataset is the inclusion of saturating doses. To accommodate the dose ranges we replaced the drug potency constant, k2, in eq. 18 with the Emax model. The process of fitting was the same as for the previous studies, however, in this study the control data were very sparse and the doubling time, T, could not be estimated. In order to proceed with the analysis we set T = 3 days based on the doubling time reported by the commercial vendor of the MOLM-16 tumor cell used in the study, which was similar to the doubling reported the original study when the cells were initially collected. […] The remaining parameters were estimated with high precision and are well within biologically feasible ranges (see Table 6).

For series [2] the following is noted: mouse, in vivo, iv, 30 mg/kg. From the text:
(§2) Data used in Case Study 1 was obtained from mouse xenograft study reported by Simeoni and colleague. […] Data from the study was digitized using Graph Digitizer 2.0 (Nick's Production).

For series [3], the system named is tumors derived from the HCT116 human colon carcinoma cell line. Kind of series: Tumor growth inhibition by paclitaxel in xenograft mice, lifespan TGI model with cycle-specific drug effect. The note with it: for TA (duration of apoptosis): 30 mg/kg i.v. every 4 days from day 8, grid search, then fixed, data digitized from ref 11; for Emax (maximum effect): fixed to 1 due to lack of escalating doses. It counts as in vivo.
Description: as §2

On the set-up of series [4]: method as in PMID 14871843. The settings on record: two-compartment model, parameter fixed, cited from earlier work.

Turning to `N[C@@H]1CCCN(c2c(/C=C3\SC(=O)NC3=O)cccc2-c2ccccc2)C1` [AZD1208], in series [1], the V/F is 4.86 L/kg; the “elimination rate constant, kel” value is on record as “same value as ka”; the ka was found to be 5.52 day⁻¹. Further, the “TA (duration of apoptosis)” value in the series on MOLM-16 tumor cell (0.3, 1, 3, 10, 30 mg/kg orally, parameter was fixed) is listed as 1.92 ^a days. Further, in the series with MOLM-16 tumor cell (Emax model replacing k2 in non-cycle-specific model), the Emax is recorded as 0.159. Moreover, in the series on MOLM-16 tumor cell (plasma concentration, Emax model, non-cycle-specific model), the EC50 – broadly, the concentration that produces a half-maximal response – amounted to 0.182 µg/mL (≈ 0.48 µM).

Molecule `CC(=O)O[C@H]1C(=O)[C@@]2(C)[C@H]([C@H](OC(=O)c3ccccc3)[C@]3(O)C[C@H](OC(=O)[C@H](O)[C@@H](NC(=O)c4ccccc4)c4ccccc4)C(C)=C1C3(C)C)[C@]1(OC(C)=O)CO[C@@H]1C[C@@H]2O` [paclitaxel] yielded a peak plasma concentration in series [2] of 37040 ng/mL. In series [3], the “TA (duration of apoptosis)” value came to 0.536 days and the “Emax (maximum effect)” value is given as 1. In series [3] (listed as Paclitaxel), the “TA (duration of apoptosis)” value was 0.536 ^a days and the “Emax (maximum effect)” value was 1 ^a. Also, the V in series [4] (i.v. paclitaxel) was 0.81 L/kg. In series [4], the k12 was 0.006 h⁻¹, the k21 is 0.0838 h⁻¹ and the kel was 0.868 h⁻¹.
